# Data reported in US20240254089A1, “MODULATORS OF MAS-RELATED G-PROTEIN RECEPTOR X4 AND RELATED PRODUCTS AND METHODS” (ESCIENT PHARMACEUTICALS, INC., priority 2020, published 2024).
# Biological target: T1, human MRGPR X4 (Homo sapiens, UniProt Q96LA9)
# T1 construct: expressed in transfected cells
# Assay: MRGPR X4 antagonist activity, IP-One Gq HTRF assay in stably transfected HEK cells
# Assay type: cell-based
# Conditions: not given
# Protocol: HEK cells stably transfected to express human MIRGPR X4 were maintained in an incubator at 37° C. with 5% CO2 and grown in DMEM media with 10% fetal bovine serum (FBS) and […] each of sodium pyruvate, Glutamax, penicillin/streptomycin, and Geneticin. HEK cells stably transfected to express mouse MRGPR A1 were maintained in the same incubator and grown in DMEM media with 10% FBS, 1% each of sodium pyruvate, Glutamax, penicillin/streptomycin, Geneticin, and 2.2 mg/mL Hygromycin.
# Cells were plated in a 384-well assay plate at 20,000 cells per well in 12 μL of Opti-MEM and kept in an incubator overnight. On the day of the assay, compounds solubilized at 10 mM in DMSO were added as a 10-point curve (10 uM final top concentration with 1:3 serial dilutions) using a Tecan D300E digital dispenser. Agonists were diluted in assay buffer (final concentrations of 5.7 mM Tris-HCl, 43 mM NaCl, 50 mM LiCl, pH=8) and 2 μL of the appropriate agonist are added to each well. Final concentrations of agonists were 10 μM bilirubin, 20 μM deoxycholic acid, or 100 μM conjugated bilirubin (obtained from Lee Biosolutions, catalog #910-12). Final concentrations of DMSO were kept consistent across the plate. Plates were incubated in the dark for 1 h at 37° C. and then for 30 minutes at room temperature. IP-1 standards and HTRF detection reagents were added according to the IP-One—Gq Kit purchased from Cisbio (part number 62IPAPEJ) and incubated in the dark for 1 h at room temperature. The plate was read on a Molecular Devices SpectraMax iD5 plate reader. The HTRF ratio was calculated from the raw data and graphed using GraphPad Prism to calculate an IC50 value for each compound.
# T1 sequence (Q96LA9 whole entry): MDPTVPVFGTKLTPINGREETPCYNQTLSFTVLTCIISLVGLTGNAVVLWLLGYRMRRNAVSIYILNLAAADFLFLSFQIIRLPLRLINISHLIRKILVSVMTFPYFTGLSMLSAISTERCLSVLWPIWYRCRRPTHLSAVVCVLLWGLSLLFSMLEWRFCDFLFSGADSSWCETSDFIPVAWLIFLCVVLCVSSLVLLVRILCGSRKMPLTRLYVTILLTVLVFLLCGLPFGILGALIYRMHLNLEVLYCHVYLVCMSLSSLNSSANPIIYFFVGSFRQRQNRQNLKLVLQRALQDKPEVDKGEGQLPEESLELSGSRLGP
row,Structure (SMILES),IC50
1,O=C(NCCc1nnc2ccccn12)c1nn(Cc2nc3ccccc3[nH]c2=O)c2ccccc12 [Compound 516],> 2.5 µM
2,Cc1cccn2c(CCNC(=O)c3nn(Cc4ccc(Cl)cc4)c4ccccc34)nnc12 [Compound 4],< 0.1 µM
3,O=C(NCCc1nnc2ccccn12)c1nn(Cc2ccc(Cl)cc2)c2ccccc12 [Compound 10],< 0.1 µM
4,Cc1cccn2c(CCNC(=O)c3nn(Cc4ccc(Cl)cc4)c4ccc(F)cc34)nnc12 [Compound 1],< 0.1 µM
5,O=C(NCCc1nnc2ccccn12)c1nn(Cc2ncc3cc(Cl)ccc3n2)c2ccccc12 [Compound 436],0.1 to 0.5 µM
6,O=C(NCc1cnc2ccccc2c1)c1nn(Cc2ccc(Cl)cc2)c2ccccc12 [Compound 370],> 2.5 µM
7,O=C(NCCCc1ccc(Cl)c(F)c1)c1cn(Cc2ccc(Cl)cc2)c2ccccc12 [Compound 204],1 to 2.5 µM
8,O=C(NCCn1cccc1)c1nn(Cc2ccc(Cl)cc2)c2ccccc12 [Compound 349],0.501 to 1 µM
9,Cc1ccc(Cn2nc(C(=O)NCCc3cc4ccccc4s3)c3ccccc32)cc1 [Compound 84],0.501 to 1 µM
10,CC(=O)c1ccc(Cn2nc(C(=O)NCCc3nnc4ccccn34)c3ccccc32)cc1 [Compound 413],0.1 to 0.5 µM
11,Cc1ccccc1S(=O)(=O)NC(=O)c1nn(Cc2ccc(OC(F)F)cc2)c2ccccc12 [Compound 258],0.1 to 0.5 µM
12,O=C(NCCc1nnc2ccccn12)c1nn(Cc2nnc(-c3ccccc3)o2)c2ccccc12 [Compound 414],0.1 to 0.5 µM
13,Cc1cccc(CCNC(=O)c2cn(Cc3ccc(Cl)cc3)c3ccccc23)c1 [Compound 180],0.1 to 0.5 µM
14,O=C(NCCc1nnc2ccccn12)c1nn(Cc2ccc(Cl)cc2F)c2ccccc12 [Compound 527],< 0.1 µM
15,O=C(NCCc1cccnc1)c1nn(Cc2cccc(F)c2)c2ccccc12 [Compound 96],1 to 2.5 µM
16,"COc1cc(Cn2nc(C(=O)NCCc3cccnc3)c3ccccc32)ccc1Cl [Compound 43, 1-(4-chloro-3-methoxybenzyl)-N-(2-(pyridin-3-yl)ethyl)-1H-indazole-3-carboxamide]",0.1 to 0.5 µM
17,COc1ccccc1Cn1cc(C(=O)NCCc2cccnc2)c2ccccc21 [Compound 226],> 2.5 µM
18,O=C(NCCc1ccc(Cl)c(F)c1)c1cn(Cc2ccc(C(F)(F)F)cc2)c2ccccc12 [Compound 209],1 to 2.5 µM
19,COc1ccc2nc(Cn3nc(C(=O)NCCc4nnc5ccccn45)c4ccccc43)[nH]c2c1 [Compound 519],0.501 to 1 µM
20,CC(C)c1ccc(Cn2nc(C(=O)O)c3ccccc32)cc1 [Compound 323],1 to 2.5 µM
21,Cn1cc(CNC(=O)c2nn(Cc3ccc(Cl)cc3)c3ccccc23)cn1 [Compound 353],> 2.5 µM
22,O=C(NCCc1nnc2ccccn12)c1nn(Cc2nc3ccccc3[nH]2)c2ccccc12 [Compound 521],1 to 2.5 µM
23,COc1ccc(-c2nc(Cn3nc(C(=O)NCCc4nnc5ccccn45)c4ccccc43)cs2)cc1 [Compound 499],0.501 to 1 µM
24,O=C(NCCc1c[nH]c2ccc(Cl)cc12)c1nn(Cc2ccc(Cl)cc2)c2ccccc12 [Compound 396],> 2.5 µM
25,O=C(NCCc1nnc2ccccn12)c1nn(Cc2ccc(Cl)cc2Cl)c2ccccc12 [Compound 525],< 0.1 µM

row,Structure (SMILES),IC50
1,Cn1c(CCNC(=O)c2nn(Cc3ccc(Cl)cc3)c3ccccc23)nc2ccccc21 [Compound 397],0.1 to 0.5 µM
2,O=C(NCCc1nnc2ccccn12)c1nn(Cc2cccc3c2CCO3)c2ccccc12 [Compound 491],0.1 to 0.5 µM
3,O=C(NCCc1nnc2ccccn12)c1nn(Cc2ccc3c(c2)CCC3)c2ccccc12 [Compound 494],< 0.1 µM
4,Cc1ccc(Cn2nc(C(=O)NCCc3cnccn3)c3ccccc32)cc1 [Compound 97],1 to 2.5 µM
5,Cc1cccc(S(=O)(=O)NC(=O)c2nn(Cc3ccc(OC(F)F)cc3)c3ccccc23)c1 [Compound 270],1 to 2.5 µM
6,Cc1ccc2c(c1)nc(Cn1nc(C(=O)NCCc3nnc4ccccn34)c3ccccc31)n2C [Compound 570],> 2.5 µM
7,O=C(NCCc1cncnc1)c1cn(Cc2ccc(Cl)cc2)c2ccccc12 [Compound 215],1 to 2.5 µM
8,Cc1nc(CCNC(=O)c2nn(Cc3ccc(Cl)cc3)c3ccccc23)sc1C [Compound 34],0.1 to 0.5 µM
9,Cc1oc(-c2ccccc2F)nc1Cn1nc(C(=O)NCCc2nnc3ccccn23)c2ccccc21 [Compound 514],0.1 to 0.5 µM
10,O=C(NCCc1cccs1)c1nn(Cc2ccc(Cl)cc2)c2ccccc12 [Compound 350],1 to 2.5 µM
11,CC(C)c1ccc(Cn2nc(C(=O)NCCc3nnc4n3CCCCC4)c3ccccc32)cc1 [Compound 35],0.1 to 0.5 µM
12,O=C(NCCc1ccc(Cl)c(F)c1)c1cn(Cc2ccc(F)cc2)c2ccccc12 [Compound 198],0.501 to 1 µM
13,O=C(NCCc1cccc(C(F)(F)F)c1)c1cn(Cc2ccc(Cl)cc2)c2ccccc12 [Compound 206],1 to 2.5 µM
14,Cc1cc(C)c2oc(Cn3nc(C(=O)NCCc4nnc5ccccn45)c4ccccc43)cc2c1 [Compound 557],0.1 to 0.5 µM
15,CN(C)c1cccc(Cn2nc(C(=O)NCCc3nnc4ccccn34)c3ccccc32)n1 [Compound 492],> 2.5 µM
16,O=C(NCCc1cccnc1)c1nn(Cc2ccc(Cl)cc2F)c2ccccc12 [Compound 18],< 0.1 µM
17,O=C(NCCc1ccc(F)cc1)c1cn(Cc2cccc(F)c2)c2ccccc12 [Compound 236],> 2.5 µM
18,CC(C)c1ccc(Cn2nc(C(=O)NCCc3nc4c(s3)CCCC4)c3ccccc32)cc1 [Compound 108],1 to 2.5 µM
19,COc1ccc(Cn2nc(C(=O)NCCc3nnc4ccccn34)c3ccccc32)c2ccccc12 [Compound 473],0.1 to 0.5 µM
20,O=C(O)c1nn(Cc2ccc(Cl)cc2)c2ccccc12 [Compound 319],1 to 2.5 µM
21,Cc1cc(C)c(Cn2nc(C(=O)NCCc3nnc4ccccn34)c3ccccc32)c(C)c1 [Compound 479],0.1 to 0.5 µM
22,O=C(Nc1ccc2cccnc2c1)c1nn(Cc2ccc(Cl)cc2)c2ccccc12 [Compound 111],1 to 2.5 µM
23,CC(C)(CNC(=O)c1cn(Cc2cccc(F)c2)c2ccccc12)c1cccnc1 [Compound 213],1 to 2.5 µM
24,Cc1cccc2[nH]c(CCNC(=O)c3nn(Cc4ccc(Cl)cc4)c4ccccc34)nc12 [Compound 561],< 0.1 µM
25,O=C(CNC(=O)c1nn(Cc2ccc(Cl)cc2)c2ccccc12)c1cccnc1 [Compound 132],0.1 to 0.5 µM

# Same assay, conditions: versus 20 μM deoxycholic acid agonist; HEK cells expressing human MRGPR X4; read-out: MRGPRX4 Antagonist Activity
row,Structure (SMILES),IC50
1,CN(C)C(=O)CS(=O)(=O)c1cn(Cc2ccc(Cl)cc2)c2ccccc12 [Compound 252],1 to 2.5 µM
2,O=C(CS(=O)(=O)c1cn(Cc2ccc(Cl)cc2)c2ccccc12)Nc1ccccc1 [Compound 242],0.501 to 1 µM
3,Cc1ccc(Cn2nc(C(=O)NCCc3nnc(C4CCOCC4)[nH]3)c3ccccc32)cc1 [Compound 109],1 to 2.5 µM
4,Cc1cc(S(=O)(=O)NC(=O)c2nn(Cc3ccc(OC(F)F)cc3)c3ccccc23)ccc1C#N [Compound 259],0.1 to 0.5 µM
5,COc1cccc(NC(=O)CS(=O)(=O)c2cn(Cc3ccc(Cl)cc3)c3ccccc23)c1 [Compound 238],0.1 to 0.5 µM
6,CNC(=O)CS(=O)(=O)c1cn(Cc2ccc(Cl)cc2)c2ccccc12 [Compound 250],1 to 2.5 µM
7,O=C(NS(=O)(=O)c1ccc(OC(F)(F)F)cc1)c1nn(Cc2ccc(OC(F)F)cc2)c2ccccc12 [Compound 296],> 2.5 µM
8,O=C(NCCc1nnc2ccccn12)c1nn(Cc2cc(-c3ccc4c(c3)OCO4)no2)c2ccccc12 [Compound 500],1 to 2.5 µM
9,COc1ccccc1CCCn1nc(C(=O)NCCc2nnc3ccccn23)c2ccccc21 [Compound 506],> 2.5 µM
10,Cc1ccc(Cn2nc(C(=O)NS(=O)(=O)c3cccc(C)c3)c3ccccc32)cc1 [Compound 297],> 2.5 µM
11,Cc1nc(S(=O)(=O)NC(=O)c2nn(Cc3ccc(Cl)cc3)c3ccccc23)sc1C [Compound 271],1 to 2.5 µM
12,O=C(NS(=O)(=O)c1ccccn1)c1nn(Cc2ccc(Cl)cc2)c2ccccc12 [Compound 291],1 to 2.5 µM
13,O=C(NS(=O)(=O)c1ccc(Cl)cc1Cl)c1nn(Cc2ccc(OC(F)F)cc2)c2ccccc12 [Compound 294],1 to 2.5 µM
14,O=C(NCCC(=O)N1CCOCC1)c1nn(Cc2ccc(Cl)cc2)c2ccccc12 [Compound 401],0.501 to 1 µM
15,O=C(CS(=O)(=O)c1cn(Cc2ccc(Cl)cc2)c2ccccc12)Nc1cccc(F)c1 [Compound 240],0.1 to 0.5 µM
16,COc1ccc(S(=O)(=O)NC(=O)c2nn(Cc3ccc(OC(F)F)cc3)c3ccccc23)cc1C [Compound 275],1 to 2.5 µM
17,O=C(NS(=O)(=O)c1ccc(C(F)(F)F)cc1)c1nn(Cc2ccc(OC(F)F)cc2)c2ccccc12 [Compound 276],1 to 2.5 µM
18,"Cc1ccc(S(=O)(=O)NC(=O)c2nn(Cc3ccc(OC(F)F)cc3)c3ccccc23)cc1 [Compound 309, 1-(4-(difluoromethoxy)benzyl)-N-tosyl-1H-indazole-3-carboxamide]",1 to 2.5 µM
19,O=C(NS(=O)(=O)c1ccc(Cl)cc1Cl)c1nn(Cc2ccc(Cl)cc2)c2ccccc12 [Compound 308],> 2.5 µM
20,O=C(Cn1nc(C(=O)NCCc2nnc3ccccn23)c2ccccc21)NCC1CCCCC1 [Compound 472],> 2.5 µM
